# Target: IDO1 (Homo sapiens, UniProt P14902)
# Assay: IDO1 Cellular Assay in HeLa Cells Stimulated with IFNγ
# Format: cell-based
# Conditions: read-out: HeLa Cell Potency, IC50
# Chain of IDO1 (P14902 whole entry): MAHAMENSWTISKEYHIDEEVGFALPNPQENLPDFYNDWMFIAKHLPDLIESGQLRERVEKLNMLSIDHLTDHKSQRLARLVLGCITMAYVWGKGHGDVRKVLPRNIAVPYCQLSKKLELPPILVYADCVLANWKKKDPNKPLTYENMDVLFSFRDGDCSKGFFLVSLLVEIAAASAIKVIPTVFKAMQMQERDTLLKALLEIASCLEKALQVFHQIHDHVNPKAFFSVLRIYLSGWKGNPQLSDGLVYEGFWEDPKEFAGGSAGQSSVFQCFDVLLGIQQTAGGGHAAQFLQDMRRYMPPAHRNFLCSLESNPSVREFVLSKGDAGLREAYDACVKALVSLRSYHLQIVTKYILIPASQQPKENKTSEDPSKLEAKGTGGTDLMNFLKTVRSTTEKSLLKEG
row,Compound,IC50
1,"Cc1cccc(N2CCN(C(=O)Cn3nc(C(=O)N4CCC(CO)CC4)c4c3C[C@H]3C[C@@H]43)CC2)c1C [Example 249, 1-[4-(2,3-dimethylphenyl)piperazin-1-yl]-2-{(3bR,4aR)-3-[4-(hydroxymethyl)piperidine-1-carbonyl]-3b,4,4a,5-tetrahydro-1H-cyclopropa[3,4]cyclopenta[1,2-c]pyrazol-1-yl}ethan-1-one]",0.62 nM
2,"Cc1cccc(N2CCN(C(=O)Cn3nc(C(=O)N4CCN(CC(F)(F)F)CC4)c4c3C[C@H]3C[C@@H]43)CC2)c1C [Example 250, 1-[4-(2,3-dimethylphenyl)piperazin-1-yl]-2-{(3bR,4aR)-3-[4-(2,2,2-trifluoroethyl)piperazine-1-carbonyl]-3b,4,4a,5-tetrahydro-1H-cyclopropa[3,4]cyclopenta[1,2-c]pyrazol-1-yl}ethan-1-one]",0.94 nM
3,"Cc1cccc(N2CCN(C(=O)Cn3nc(C(=O)N4CC[C@H](CO)C4)c4c3C[C@H]3C[C@@H]43)CC2)c1C [Example 251, 1-[4-(2,3-dimethylphenyl)piperazin-1-yl]-2-{(3bR,4aR)-3-[(3S)-3-(hydroxymethyl)pyrrolidine-1-carbonyl]-3b,4,4a,5-tetrahydro-1H-cyclopropa[3,4]cyclopenta[1,2-c]pyrazol-1-yl}ethan-1-one]",0.94 nM
4,"Cc1cccc(N2CCN(C(=O)Cn3nc(C(=O)N4CC[C@@H](CO)C4)c4c3C[C@H]3C[C@@H]43)CC2)c1C [Example 252, 1-[4-(2,3-dimethylphenyl)piperazin-1-yl]-2-{(3bR,4aR)-3-[(3R)-3-(hydroxymethyl)pyrrolidine-1-carbonyl]-3b,4,4a,5-tetrahydro-1H-cyclopropa[3,4]cyclopenta[1,2-c]pyrazol-1-yl}ethan-1-one]",1.5 nM
5,"Cc1cccc(N2CCN(C(=O)Cn3nc(C(=O)N4CCC(N5CCNC5=O)CC4)c4c3C[C@H]3C[C@@H]43)CC2)c1C [Example 253, 1-{1-[(3bR,4aR)-1-{2-[4-(2,3-dimethylphenyl)piperazin-1-yl]-2-oxoethyl}-3b,4,4a,5-tetrahydro-1H-cyclopropa[3,4]cyclopenta[1,2-c]pyrazole-3-carbonyl]piperidin-4-yl}imidazolidin-2-one]",1.52 nM
6,"CNC(=O)C1CCN(C(=O)c2nn(CC(=O)N3CCN(c4cccc(C)c4C)CC3)c3c2[C@@H]2C[C@@H]2C3)CC1 [Example 254, 1-[(3bR,4aR)-1-{2-[4-(2,3-dimethylphenyl)piperazin-1-yl]-2-oxoethyl}-3b,4,4a,5-tetrahydro-1H-cyclopropa[3,4]cyclopenta[1,2-c]pyrazol-3-carbonyl]-N-methylpiperidine-4-carboxamide]",1.71 nM
7,"Cc1cccc(N2CCN(C(=O)Cn3nc(C(=O)N4CCC(NC(N)=O)CC4)c4c3C[C@H]3C[C@@H]43)CC2)c1C [Example 255, N-{1-[(3bR,4aR)-1-{2-[4-(2,3-dimethylphenyl)piperazin-1-yl]-2-oxoethyl}-3b,4,4a,5-tetrahydro-1H-cyclopropa[3,4]cyclopenta[1,2-c]pyrazole-3-carbonyl]piperidin-4-yl}urea]",13.1 nM
8,"CC(=O)N(C)C1CCN(C(=O)c2nn(CC(=O)N3CCN(c4cccc(C)c4C)CC3)c3c2[C@@H]2C[C@@H]2C3)CC1 [Example 256, N-{1-[(3bR,4aR)-1-{2-[4-(2,3-dimethylphenyl)piperazin-1-yl]-2-oxoethyl}-3b,4,4a,5-tetrahydro-1H-cyclopropa[3,4]cyclopenta[1,2-c]pyrazole-3-carbonyl]piperidin-4-yl}-N-methylacetamide]",0.83 nM
9,"Cc1cccc(N2CCN(C(=O)Cn3nc(C(=O)N4CCC(NC(=O)C5CC5)CC4)c4c3C[C@H]3C[C@@H]43)CC2)c1C [Example 257, N-{1-[(3bR,4aR)-1-{2-[4-(2,3-dimethylphenyl)piperazin-1-yl]-2-oxoethyl}-3b,4,4a,5-tetrahydro-1H-cyclopropa[3,4]cyclopenta[1,2-c]pyrazole-3-carbonyl]piperidin-4-yl}cyclopropanecarboxamide]",1.05 nM
10,"Cc1cccc(N2CCN(C(=O)Cn3nc(C(=O)N4CCC(N5CCC5)CC4)c4c3C[C@H]3C[C@@H]43)CC2)c1C [Example 258, 2-{(3bR,4aR)-3-[4-(azetidin-1-yl)piperidine-1-carbonyl]-3b,4,4a,5-tetrahydro-1H-cyclopropa[3,4]cyclopenta[1,2-c]pyrazol-1-yl}-1-[4-(2,3-dimethylphenyl)piperazin-1-yl]ethan-1-one]",2.95 nM
11,"Cc1cccc(N2CCN(C(=O)Cn3nc(C(=O)N4CCC(O)(CN5CCCCC5)CC4)c4c3C[C@H]3C[C@@H]43)CC2)c1C [Example 259, 1-[4-(2,3-dimethylphenyl)piperazin-1-yl]-2-[(3bR,4aR)-3-{4-hydroxy-4-[(piperidin-1-yl)methyl]piperidine-1-carbonyl}-3b,4,4a,5-tetrahydro-1H-cyclopropa[3,4]cyclopenta[1,2-c]pyrazol-1-yl]ethan-1-one]",9.62 nM
12,"Cc1cccc(N2CCN(C(=O)Cn3nc(C(=O)N4CCN(CC(F)F)CC4)c4c3C[C@H]3C[C@@H]43)CC2)c1C [Example 260, 2-{(3bR,4aR)-3-[4-(2,2-difluoroethyl)piperazine-1-carbonyl]-3b,4,4a,5-tetrahydro-1H-cyclopropa[3,4]cyclopenta[1,2-c]pyrazol-1-yl}-1-[4-(2,3-dimethyl-phenyl)piperazin-1-yl]ethan-1-one]",0.84 nM
13,"Cc1cccc(N2CCN(C(=O)Cn3nc(C(=O)N4CC[C@@H](O)C[C@@H]4C)c4c3C[C@H]3C[C@@H]43)CC2)c1C [Example 261, 1-[4-(2,3-dimethylphenyl)piperazin-1-yl]-2-{(3bR,4aR)-3-[(2S,4R)-4-hydroxy-2-methylpiperidine-1-carbonyl]-3b,4,4a,5-tetrahydro-1H-cyclopropa[3,4]cyclopenta[1,2-c]pyrazol-1-yl}ethan-1-one]",0.95 nM
14,"Cc1cccc(N2CCN(C(=O)Cn3nc(C(=O)N4CC[C@H](C(C)(C)O)C4)c4c3C[C@H]3C[C@@H]43)CC2)c1C [Example 262, 1-[4-(2,3-dimethylphenyl)piperazin-1-yl]-2-{(3bR,4aR)-3-[(3S)-3-(2-hydroxypropan-2-yl)pyrrolidine-1-carbonyl]-3b,4,4a,5-tetrahydro-1H-cyclopropa[3,4]cyclopenta[1,2-c]pyrazol-1-yl}ethan-1-one]",0.82 nM
15,"Cc1cccc(N2CCN(C(=O)Cn3nc(C(=O)N4CCC(O)(CO)CC4)c4c3C[C@H]3C[C@@H]43)CC2)c1C [Example 263, 1-[4-(2,3-dimethylphenyl)piperazin-1-yl]-2-{(3bR,4aR)-3-[4-hydroxy-4-(hydroxymethyl)piperidine-1-carbonyl]-3b,4,4a,5-tetrahydro-1H-cyclopropa[3,4]cyclopenta[1,2-c]pyrazol-1-yl}ethan-1-one]",0.75 nM
16,"Cc1cccc(N2CCN(C(=O)Cn3nc(C(=O)N4CCC(O)C(CO)C4)c4c3C[C@H]3C[C@@H]43)CC2)c1C (stereo partly drawn) [Example 264, 1-[4-(2,3-dimethylphenyl)piperazin-1-yl]-2-{(3bR,4aR)-3-[4-hydroxy-3-(hydroxymethyl)piperidine-1-carbonyl]-3b,4,4a,5-tetrahydro-1H-cyclopropa[3,4]cyclopenta[1,2-c]pyrazol-1-yl}ethan-1-one]",1.28 nM

# From patent US12264134B2 (Merck Sharp & Dohme LLC, priority 2018, dated 2025)
